Where “and” joins values, the source holds several entries; their conditions need not be identical. Identical values can stand only once. Entries after “also recorded” stand apart in the source; their conditions may differ.
How the values were obtained:
[1] = Erythrocytes/plasma partition coefficient of BBR in vivo; design: species or system SD rats; settings: for Ce (drug concentration in erythrocytes) / Ce/p (erythrocytes/plasma partition coefficient) / Cp (drug concentration in plasma): individual rats no. 1-6
Experimental: After six SD rats were intravenously administrated with BBR, blood samples were obtained from posterior orbital venous plexus to a heparinized tube at 5, 30, and 120 min, respectively, and then centrifuged at 2500 rpm for 10 min. After centrifugation, the upper layer (plasma) was collected, while the lower layer (blood cells) was washed three times with physiological saline and centrifuged for 5 min at 3000 rpm, and then resuspended in an appropriate volume of physiological saline, which was obtained as erythrocytes to perform the following procedure:
Piperine was added into the obtained plasma as the internal standard substance and then the samples were mixed with acetonitrile to precipitate protein. The mixtures were centrifuged at 8000 rpm for 10 min. The supernatants were collected and dried. The eluates were concentrated and re-dissolved for analysis.
The obtained erythrocytes were mixed with piperine and HC, and placed in a water bath at 60 °C for 6 h and then centrifuged at 12,000 rpm for 10 min. The supernatant was obtained and injected through a solid-phase extraction to separate drugs and impurities. The filtrate was collected, dried, and then re-dissolved with 200 μL acetonitrile for HPLC analysis (Chen et al., [2021]).

[2] = target: T1, bovine hemoglobin (BHB) (Bos taurus, UniProt P01966+P02070); experiment: Fluorescence quenching of BHB by BBR (Stern-Volmer) and thermodynamic parameters; format: binding; settings: for Ksv (Stern-Volmer quenching constant) / kq (quenching rate constant): BHB 2 × 10^−6 mol/L, pH 7.4; for ΔG° / ΔH° / ΔS°: BBR–BHB system
T1 construct: purchased Sigma Aldrich
T1 sequence (P01966 2-142 limits assumed): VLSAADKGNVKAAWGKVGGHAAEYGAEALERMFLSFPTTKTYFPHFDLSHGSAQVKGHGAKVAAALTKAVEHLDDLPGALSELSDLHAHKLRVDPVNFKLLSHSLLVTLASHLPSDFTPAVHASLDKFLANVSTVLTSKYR
T1 sequence (P02070 whole entry): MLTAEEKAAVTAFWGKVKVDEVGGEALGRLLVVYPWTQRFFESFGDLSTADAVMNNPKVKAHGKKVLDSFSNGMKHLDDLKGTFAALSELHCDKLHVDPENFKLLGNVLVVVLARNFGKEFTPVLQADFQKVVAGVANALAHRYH
Experimental: Firstly, 1.0 mL of BHB (2.0 × 10^−6 mol/L) was mixed with 1.0 mL of 0.05 mol/L Tris-HCl buffer (pH = 7.4). And then BHB was added with different amounts of 0.25 × 10^−3 mol/L stock solution of BBR with an increment of 0.25 × 10^−5 mol/L until 1.75 × 10^−5 mol/L. […] (excitation at 280 nm and emission wavelengths ranging from 295 to 400 nm). The synchronous fluorescence spectra were measured through simultaneous scanning of the excitation (λex = 240 nm) and emission monochromators while maintaining a constant wavelength interval between them (Δλ, 15 nm and 60 nm).
In addition, CD spectra were collected from 200 to 260 nm with three scans averaged for each CD spectrum. The molar ratio (1:1) of BHB: BBR was used for the measurement. Briefly, BHB and BBR were dissolved in Tris-HCl (pH 7.4), and the solutions were freeze-dried into powder. Raman spectra were measured from 2600 to 400 cm^−1 using the Nd-YAG laser (1064 nm). Due to the existence of inner filter effects, the fluorescence parameter was corrected using the equation: F=F0×10^(AEX+AEM/2) where F and F0 are the fluorescence intensity corrected and observed, respectively; AEX and AEM are the sums of the absorbance of samples at excitation and emission wavelengths (Chen et al., [2021]).
Fluorescence quenching could be used to explore the interaction between drugs and proteins, and further elucidate the interaction between small drug molecules and biological macromolecules at the molecular level. Due to the quenching mechanisms were usually classified as static and dynamic quenching, the Stern-Volmer equation was utilized to calculate the fluorescence quenching data (Wang et al., [2007]): F0/F=1+Ksv[Q]=1+kqτ0[Q] where F0 and F are the fluorescence intensities at the absence or presence of BBR after correction by Equation, respectively. Ksv is the Stern-Volmer quenching constant, while [Q] is the concentration of the quencher. In addition, kq is the quenching rate constant of the binding system, and τ0 is the lifetime of fluorescence at the absence of quencher ([…]) (Sousa et al., [2008]).
In our earlier research, we have explored the association constants and the number of binding sites, and we have learned that in a static quenching system when a small molecule combines with a set of sites on a macromolecule, some constant can be calculated from the following equation: lg(F0−F/F)=lgKa+nlg[Q] where F0 and F are the fluorescence intensities in the absence and presence of BBR after correction by Equation in Spectrum procedure, Ka and n mean the association constants and the number of the sites per BHB molecule. The interrelated results were shown in our previous work (Chen et al., [2021]).
The thermodynamic parameters were analyzed using the following equations: ln((Ka)2/(Ka)1)=(1/T1−1/T2)(ΔH°/R) ΔG°=ΔH°−TΔS°=−RTlnKa where (Ka)1, and (Ka)2 are the binding constants at T1 and T2 and, R is the universal gas constant. If ΔH° < 0 and ΔS° < 0, van der Waals’ interactions and hydrogen bonds are dominant the binding reaction. If ΔH° > 0 and ΔS° > 0, hydrophobic interactions play a major role in the binding reaction. When ΔH° < 0 and ΔS° > 0, the electrostatic forces are more important than other forces (Ross and Subramanian, [1981]). […] The large positive entropy is the marker of the disruption and release of protein-bound condensed ions and water molecules (Basu & Suresh Kumar, [2015]).

[3] = system: erythrocyte count, WBC count, PLT and Hb; experiment: Haematological indicators (peripheral blood cells) after intravenous BBR; format: in vivo, SD rats; settings: rats, i.v. 2.5 mg/kg, 5, 30 and 120 min, vs control group, n = 8
Experimental: After 48 SD rats were fed adaptively for a week, they were randomly divided into the control group and i.v. group (24 rats per group). Then they were further divided into 5, 30, and 120 min subgroups (n = 8). The SD rats in the i.v. group were intravenously administrated with 2.5 mg/kg BBR, while the control group was intravenously administrated with 1 mL 0.9% physiological saline solution. The blood samples were collected from the retroorbital sinus to K2EDTA-coated tubes, and used for the evaluation of haematological indicators including erythrocyte count, white blood cell (WBC) count, platelet count (PLT) and Hb.

## COc1ccc2cc3[n+](cc2c1OC)CCc1cc2c(cc1-3)OCO2 [BBR, Berberine]
[1]; 5 min after 2.5 mg/kg
  Ce (drug concentration in erythrocytes): 1.313 µM and 0.039 µM and 0.000 µM and 0.375 µM and 0.862 µM and 0.584 µM
  Ce/p (erythrocytes/plasma partition coefficient): ∞ and 0.081 and 1.610 and 3.700 and 1.405
  Cp (drug concentration in plasma): 0 nM and 489 nM and 233 nM and 416 nM
[1]; 30 min after 2.5 mg/kg
  Ce (drug concentration in erythrocytes): 0.044 µM and 0.212 µM and 0.026 µM and 0.176 µM and 0.539 µM
  Ce/p (erythrocytes/plasma partition coefficient): ∞ and 0.090 and 0.897 and 0.875
  Cp (drug concentration in plasma): 0 nM and 282 nM and 197 nM and 616 nM
[1]; 120 min after 2.5 mg/kg
  Ce (drug concentration in erythrocytes): 0.225 µM and 0.000 µM and 0.132 µM
  Ce/p (erythrocytes/plasma partition coefficient): ∞
  Cp (drug concentration in plasma): 0 nM and 1243 nM
[1]; SD, rat, erythrocytes/plasma, iv, 2.5 mg/kg, 5 min after intravenous administration, rats, read-out: Ce/p value (group value)
  Kp at 5 min: 1.67 ± 1.5
[1]; SD, rat, erythrocytes/plasma, iv, 2.5 mg/kg, 30 min after intravenous administration, rats, read-out: Ce/p value (group value)
  Kp at 30 min: 0.62 ± 0.6
[2]; 293 K
  Ksv (Stern-Volmer quenching constant): 41272 L/mol
  kq (quenching rate constant): 4.1272e+12 M⁻¹ s⁻¹
  ΔG°: -6.1902 kcal/mol
  ΔH°: -1.1352 kcal/mol
  ΔS°: 72.113 J mol^−1K^−1
[2]; 298 K
  Ksv (Stern-Volmer quenching constant): 38445 L/mol
  kq (quenching rate constant): 3.8445e+12 M⁻¹ s⁻¹
  ΔG°: -6.2765 kcal/mol
  ΔH°: -1.1352 kcal/mol
  ΔS°: 72.114 J mol^−1K^−1
[2]; 310 K
  Ksv (Stern-Volmer quenching constant): 30957 L/mol
  kq (quenching rate constant): 3.0957e+12 M⁻¹ s⁻¹
  ΔG°: -6.4493 kcal/mol
  ΔH°: -1.1352 kcal/mol
  ΔS°: 71.724 J mol^−1K^−1
[2]; Ksv and Kq decreased with increasing temperature
  quenching mechanism of BBR-BHB complex formation: static quenching process
[2]; from negative ΔH° and positive ΔS°
  major force in the binding reaction: electrostatic interaction
[3]
  Hb content: significantly decreased; also recorded: significantly reduced
  erythrocytes count: significantly decreased; also recorded: significantly reduced
  platelet count: did not fluctuate obviously; also recorded: no significant effects
  white blood count: did not fluctuate obviously; also recorded: no significant effects
